In brackets after ≈: the same amount, converted by molar mass. Where a name gives a salt, the structure may show the parent alone.
Experiments:
Type in all cases: functional, organism-based
[1] = tested on: Mycolicibacterium smegmatis; test: Antimycobacterial activity against Mycobacterium smegmatis grown in Luria-Bertani broth medium assessed as growth inhibition in mid-logarithmic phase by spectrophotometry
[2] = tested on: Mycolicibacterium smegmatis; test: Antimycobacterial activity against Mycobacterium smegmatis grown in carbon-limited broth medium assessed as growth inhibition in mid-logarithmic phase by spectrophotometry
[3] = tested on: Mycolicibacterium smegmatis; test: Antimycobacterial activity against Mycobacterium smegmatis grown in nitrogen -limited broth medium assessed as growth inhibition in mid-logarithmic phase by spectrophotometry
[4] = tested on: Mycolicibacterium smegmatis; test: Antimycobacterial activity against Mycobacterium smegmatis grown in Luria-Bertani broth medium assessed as growth inhibition in mid-logarithmic phase by GFP-based fluorescence assay
[5] = tested on: Mycolicibacterium smegmatis; test: Antimycobacterial activity against Mycobacterium smegmatis grown in carbon-limited broth medium assessed as growth inhibition in mid-logarithmic phase by GFP-based fluorescence assay
[6] = tested on: Mycolicibacterium smegmatis; test: Antimycobacterial activity against Mycobacterium smegmatis grown in nitrogen -limited broth medium assessed as growth inhibition in mid-logarithmic phase by GFP-based fluorescence assay

Molecule	IC50 ([1]; Mycolicibacterium smegmatis)	MIC ([1]; Mycolicibacterium smegmatis)	IC50 ([2]; Mycolicibacterium smegmatis)	MIC ([2]; Mycolicibacterium smegmatis)	IC50 ([3]; Mycolicibacterium smegmatis)	MIC ([3]; Mycolicibacterium smegmatis)	IC50 ([4]; Mycolicibacterium smegmatis)	MIC ([4]; Mycolicibacterium smegmatis)	IC50 ([5]; Mycolicibacterium smegmatis)	MIC ([5]; Mycolicibacterium smegmatis)	IC50 ([6]; Mycolicibacterium smegmatis)	MIC ([6]; Mycolicibacterium smegmatis)	MIC [1]	MIC [2]	MIC [3]	MIC [4]	MIC [5]	MIC [6]
O=C1c2c(O)ccc(O)c2C(=O)c2c(NCCNCCO)ccc(NCCNCCO)c21 [MITOXANTRONE]	21.8 µM	50 µM (≈ 22.2 µg/mL)	9.7 µM	50 µM (≈ 22.2 µg/mL)	5.02 µM	50 µM (≈ 22.2 µg/mL)	21.8 µM	50 µM (≈ 22.2 µg/mL)	9.7 µM	50 µM (≈ 22.2 µg/mL)	5.02 µM	50 µM (≈ 22.2 µg/mL)	–	–	–	–	–	–
4-[sequence] ACID	–	–	–	–	–	–	–	–	–	–	–	–	25 µM	6.25 µM	12.5 µM	25 µM	6.25 µM	12.5 µM
Clc1ccccc1C(c1ccccc1)(c1ccccc1)n1ccnc1 [CLOTRIMAZOLE]	6.54 µM	12.5 µM (≈ 4.31 µg/mL)	18.2 µM	50 µM (≈ 17.2 µg/mL)	12.2 µM	50 µM (≈ 17.2 µg/mL)	6.54 µM	12.5 µM (≈ 4.31 µg/mL)	18.2 µM	50 µM (≈ 17.2 µg/mL)	12.2 µM	50 µM (≈ 17.2 µg/mL)	–	–	–	–	–	–
O=C(Nc1ccc([N+](=O)[O-])cc1Cl)c1cc(Cl)ccc1O [NICLOSAMIDE]	6.85 µM	12.5 µM (≈ 4.09 µg/mL)	3.31 µM	6.25 µM (≈ 2.04 µg/mL)	4.73 µM	6.25 µM (≈ 2.04 µg/mL)	6.85 µM	12.5 µM (≈ 4.09 µg/mL)	3.31 µM	6.25 µM (≈ 2.04 µg/mL)	4.73 µM	6.25 µM (≈ 2.04 µg/mL)	–	–	–	–	–	–
CN(C)c1ccc(O)c2c1C[C@H]1C[C@H]3[C@H](N(C)C)C(O)=C(C(N)=O)C(=O)[C@@]3(O)C(O)=C1C2=O [MINOCYCLINE]	6.77 µM	12.5 µM (≈ 5.72 µg/mL)	5.02 µM	12.5 µM (≈ 5.72 µg/mL)	7.23 µM	12.5 µM (≈ 5.72 µg/mL)	6.77 µM	12.5 µM (≈ 5.72 µg/mL)	5.02 µM	12.5 µM (≈ 5.72 µg/mL)	7.23 µM	12.5 µM (≈ 5.72 µg/mL)	–	–	–	–	–	–
CNc1ccc2oc(C[C@H]3O[C@@]4(CC[C@H]3C)O[C@H]([C@H](C)C(=O)c3ccc[nH]3)[C@H](C)C[C@H]4C)nc2c1C(=O)O [CALCIMYCIN]	1.04 µM	3.12 µM (≈ 1.64 µg/mL)	5.21 µM	12.5 µM (≈ 6.55 µg/mL)	3.43 µM	12.5 µM (≈ 6.55 µg/mL)	1.04 µM	3.12 µM (≈ 1.64 µg/mL)	5.21 µM	12.5 µM (≈ 6.55 µg/mL)	3.43 µM	12.5 µM (≈ 6.55 µg/mL)	–	–	–	–	–	–
COc1ccccc1CNCCCCCCNCCCCCCCCNCCCCCCNCc1ccccc1OC [METHOCTRAMINE HYDROCHLORIDE]	15.9 µM	12.5 µM	6.88 µM	12.5 µM	7.45 µM	12.5 µM	15.9 µM	12.5 µM	6.88 µM	12.5 µM	7.45 µM	12.5 µM	–	–	–	–	–	–
Cc1c(C)c2c(c(C)c1O)CCC(C)(CN1CCN(c3cc(N4CCCC4)nc(N4CCCC4)n3)CC1)O2 (single isomer, unassigned)	> 50 µM	50 µM (≈ 26 µg/mL)	> 50 µM	50 µM (≈ 26 µg/mL)	34.2 µM	50 µM (≈ 26 µg/mL)	> 50 µM	50 µM (≈ 26 µg/mL)	> 50 µM	50 µM (≈ 26 µg/mL)	34.2 µM	50 µM (≈ 26 µg/mL)	–	–	–	–	–	–
CC1COc2c(N3CCN(C)CC3)c(F)cc3c(=O)c(C(=O)O)cn1c23 (stereo not drawn) [OFLOXACIN]	2.03 µM	3.12 µM (≈ 1.13 µg/mL)	3.13 µM	6.25 µM (≈ 2.26 µg/mL)	1.73 µM	6.25 µM (≈ 2.26 µg/mL)	2.03 µM	3.12 µM (≈ 1.13 µg/mL)	3.13 µM	6.25 µM (≈ 2.26 µg/mL)	1.73 µM	6.25 µM (≈ 2.26 µg/mL)	–	–	–	–	–	–
CN(C)[C@@H]1C(O)=C(C(N)=O)C(=O)[C@@]2(O)C(O)=C3C(=O)c4c(O)ccc(Cl)c4[C@@H](O)[C@H]3C[C@@H]12 [DEMECLOCYCLINE]	1.88 µM	3.12 µM (≈ 1.45 µg/mL)	5.92 µM	6.25 µM (≈ 2.91 µg/mL)	4.4 µM	6.25 µM (≈ 2.91 µg/mL)	1.88 µM	3.12 µM (≈ 1.45 µg/mL)	5.92 µM	6.25 µM (≈ 2.91 µg/mL)	4.4 µM	6.25 µM (≈ 2.91 µg/mL)	–	–	–	–	–	–
C[C@H]1c2cccc(O)c2C(=O)C2=C(O)[C@]3(O)C(=O)C(C(N)=O)=C(O)[C@@H](N(C)C)[C@@H]3[C@@H](O)[C@@H]21 [DOXYCYCLINE]	0.76 µM	1.56 µM (≈ 0.693 µg/mL)	2.98 µM	3.12 µM (≈ 1.39 µg/mL)	1.95 µM	3.12 µM (≈ 1.39 µg/mL)	0.76 µM	1.56 µM (≈ 0.693 µg/mL)	2.98 µM	3.12 µM (≈ 1.39 µg/mL)	1.95 µM	3.12 µM (≈ 1.39 µg/mL)	–	–	–	–	–	–
CC(C)(C)c1ccc(S(=O)(=O)/C=C/C#N)cc1 [BAY-11-7085]	30.6 µM	50 µM (≈ 12.5 µg/mL)	2.58 µM	6.25 µM (≈ 1.56 µg/mL)	6.22 µM	12.5 µM (≈ 3.12 µg/mL)	30.6 µM	50 µM (≈ 12.5 µg/mL)	2.58 µM	6.25 µM (≈ 1.56 µg/mL)	6.22 µM	12.5 µM (≈ 3.12 µg/mL)	–	–	–	–	–	–
